Test results as given in patent US20220217972A1, “Methods for cryopreservation of sub-millimeter and millimeter scale biological materials” (Regents of the University of Minnesota, priority 2021, published 2022).

Experiments:
[1] = system: Drosophila melanogaster embryos; conditions: permeable CPAs compared under the same weight concentration; strain M2
Method: (§1) CPA loading and dehydration. Right after permeabilization, a brush was used to break up clumps into individual embryos floating as a monolayer with minimal overlap (FIG. 2B). […] The embryos should remain floating in order to maintain access to oxygen. After 3 min, “wrinkles” on the embryo surface were observed under a dissecting microscope, indicating volumetric shrinkage (i.e., losing water) in response to higher external osmolarity (FIG. 2C). The percentage of embryos that shrunk was recorded. The 13 weight percent EG petri dish was then placed in a humid chamber. At 25 min, embryos were inspected under a dissecting microscope to confirm that they swelled back to their original shape, indicating EG had entered the embryos. The percentage of embryos that swelled back was recorded.
Next, the mesh basket was blotted and placed in 39 weight percent EG+9 weight percent sorbitol solution prepared in cryobuffer on ice (i.e., ˜4° C.) for 9 min This step dehydrates the embryos (i.e., water loss) thereby elevating the intra-embryonic EG concentration to favor vitrification and avoidance of devitrification during the rewarming processes. In general, 5-6 ml dehydration CPA was used in a 35 mm petri dish.
At this point, intra-embryonic CPA concentration was elevated through dehydration by placing the embryos in a high concentration CPA (i.e., ˜39 weight percent) at 4° C. […]

[2] = system: Drosophila melanogaster embryos; experiment: Post cryopreservation survival (hatch rate and adult rate) of embryos; format: in vivo; conditions: strain M2; for post cryopreservation survival: replacing sorbitol as sugar in dehydration CPA
Method: Step 1. Embryo collection and staging. On day 1, 700-1200 flies at the age of 1-4 days old were used to collect embryos at room temperature. Usually 4 bottles of flies were used, 8 or more bottles were used if needed. Flies were placed in an empty Drosophila bottle covered with a mesh cloth as a cap (FIG. 2A). Embryos were collected in a 1 hour period on a grape juice plate smeared with yeast paste. The first hour collection served as an egg clean-up procedure for the female flies and were abandoned. Disturbance of flies was minimized during embryo collection. Grape juice plates with collected embryos were labeled with the end time point of collection, for instance, 3 pm was used to label the collection from 2 pm to 3 pm. Embryos were placed in a temperature incubator at 20.1±0.05° C. (Heratherm purchased from Thermo Scientific) until reaching the desired stage for cryopreservation. 20° C. was selected so that optimal embryo age for cryopreservation will be achieved during a normal work hour on the following day. In this work, embryo collection occurred in the afternoon and usually 2-4 collections were performed.
Step 2. Dechorionation and permeabilization. On day 2, embryos were washed off from the grape juice plate into a nylon mesh basket and dechorionated in 50% bleach for 2-4 minutes. After rinsing with running tap water for 1-2 minutes to remove excess bleach, embryos along with the mesh basket were briefly blotted on paper towel and placed in the cryobuffer (20 mM NaCl, 2.7 mM KCl, 10 mM Na2HPO4, 1.8 mM KH2PO4, 4 mM MgCl2, 13 mM MgSO4, 60 mM Glycine, 60 mM Glutamic acid and 5 mM Malic acid, pH6.8, sterilized by filtration) in a 35 mm petri dish. Embryos were examined under a dissecting microscope to confirm the removal of chorions. In addition, the gut morphology was evaluated to verify the embryo stage (FIG. 2B).
Before permeabilization, ˜4 ml isopropanol, mixture of D-limonene and heptane (4:1 v/v), and heptane alone were added to three separate 35 mm glass petri dishes in a fume hood. […]
Step 3. […] The percentage of embryos that shrunk was recorded. […]

[3] = system: Drosophila melanogaster embryos; conditions: 13 weight percent EG in cryobuffer; shrink at 3 min, swelled back at 25 min; correct stage, properly permeabilized
Method: as §1

SMILES	CPA toxicity (post dehydration survival) [1]	survival post cryopreservation ([2]; permeable CPAs compared under the same weight concentration)	embryos that shrink and swell [3] [%]	post cryopreservation survival [2]
C[S+](C)[O-] [DMSO, dimethyl sulfoxide]	highest CPA toxicity			
OCCO [EG, ethylene glycol]	least CPA toxicity	highest survival post cryopreservation	> 90	
OC[C@H]1O[C@@](CO)(O[C@H]2O[C@H](CO)[C@@H](O)[C@H](O)[C@H]2O)[C@@H](O)[C@@H]1O [sucrose]				did not affect post cryopreservation survival
OC[C@H]1O[C@H](O[C@H]2O[C@H](CO)[C@@H](O)[C@H](O)[C@H]2O)[C@H](O)[C@@H](O)[C@@H]1O [trehalose]				did not affect post cryopreservation survival
